From patent US20250122219A1 (priority 2023, published 2025)

How the values were obtained:
[1] = Cytotoxicity assay in MT-4 cells; assay type: cell-based; conditions: human; uninfected MT-4 cells, 5 days incubation, Cell Titer Glo; read-out: MT4 CC50
Method in brief: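 Viability read by Cell Titer Glo luminescence after 5 days at 37 °C. MT-4 cells, not infected, in complete RPMI (10% FBS), received compound dilution series. Base cytotoxicity set with […] puromycin.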

[2] = system: HIV-1 (IIIB); experiment: Antiviral assay in MT-4 cells; assay type: cell-based; conditions: Human immunodeficiency virus 1, MT4, 120 h; HIV-1 IIIB in MT-4 cells, 5 days incubation, Cell Titer Glo; read-out: MT4 EC50
Method in brief: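 Read-out: CellTiter-Glo luminescence after 5 days at 37 °C, reflecting survival of MT-4 cells infected with HIV-1 IIIB (1:250 fresh stock dilution) versus mock-infected. Compounds serially diluted into RPMI with 10% FBS; AZT at 5 μM served as positive control.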

EC50 [2]	SMILES	CC50 at 5 days [1]
0.153 nM	CCCCCCOC(=O)Oc1c2n(cc(C(=O)NCc3ccc(F)cc3F)c1=O)[C@@H]1CN(C2=O)[C@@H](C)CC[C@]12CC(OC)=NO2 [Example 132, (3′S,5S,7′R)-10′-((2,4-difluorobenzyl)carbamoyl)-3-methoxy-3′-methyl-1′,11′-dioxo-1′,4′,5′,11′-tetrahydro-3′H,4H,7′H-spiro[isoxazole-5,6′-[2,7]methanopyrido[1,2-a][1,4]diazonin]-12′-yl hexyl carbonate]	17800 nM
0.819 nM	CCCCCCCOC(=O)Oc1c2n(cc(C(=O)NCc3ccc(F)cc3F)c1=O)[C@@H]1CN(C2=O)[C@@H](C)CC[C@]12CC(C)=NO2 [Example 133, (3′S,5S,7′R)-10′-((2,4-difluorobenzyl)carbamoyl)-3,3′-dimethyl-1′,11′-dioxo-1′,4′,5′,11′-tetrahydro-3′H,4H,7′H-spiro[isoxazole-5,6′-[2,7]methanopyrido[1,2-a][1,4]diazonin]-12′-yl heptyl carbonate]	16700 nM
0.516 nM	CCCCCCCOC(=O)Oc1c2n(cc(C(=O)NCc3ccc(F)cc3F)c1=O)[C@@H]1CN(C2=O)[C@@H](C)CC[C@]12CC(OC)=NO2 [Example 134, (3′S,5S,7′R)-10′-((2,4-difluorobenzyl)carbamoyl)-3-methoxy-3′-methyl-1′,11′-dioxo-1′,4′,5′,11′-tetrahydro-3′H,4H,7′H-spiro[isoxazole-5,6′-[2,7]methanopyrido[1,2-a][1,4]diazonin]-12′-yl heptyl carbonate]	25700 nM
0.409 nM	CCCCCCCCOC(=O)Oc1c2n(cc(C(=O)NCc3ccc(F)cc3F)c1=O)[C@@H]1CN(C2=O)[C@@H](C)CC[C@]12CC(C)=NO2 [Example 135, (3′S,5S,7′R)-10′-((2,4-difluorobenzyl)carbamoyl)-3,3′-dimethyl-1′,11′-dioxo-1′,4′,5′,11′-tetrahydro-3′H,4H,7′H-spiro[isoxazole-5,6′-[2,7]methanopyrido[1,2-a][1,4]diazonin]-12′-yl octyl carbonate]	14200 nM
0.496 nM	CCCCCCCCOC(=O)Oc1c2n(cc(C(=O)NCc3ccc(F)cc3F)c1=O)[C@@H]1CN(C2=O)[C@@H](C)CC[C@]12CC(OC)=NO2 [Example 136, (3′S,5S,7′R)-10′-((2,4-difluorobenzyl)carbamoyl)-3-methoxy-3′-methyl-1′,11′-dioxo-1′,4′,5′,11′-tetrahydro-3′H,4H,7′H-spiro[isoxazole-5,6′-[2,7]methanopyrido[1,2-a][1,4]diazonin]-12′-yl octyl carbonate]	23500 nM
2.07 nM	CCCCCCCCCOC(=O)Oc1c2n(cc(C(=O)NCc3ccc(F)cc3F)c1=O)[C@@H]1CN(C2=O)[C@@H](C)CC[C@]12CC(C)=NO2 [Example 137, (3′S,5S,7′R)-10′-((2,4-difluorobenzyl)carbamoyl)-3,3′-dimethyl-1′,11′-dioxo-1′,4′,5′,11′-tetrahydro-3′H,4H,7′H-spiro[isoxazole-5,6′-[2,7]methanopyrido[1,2-a][1,4]diazonin]-12′-yl nonyl carbonate]	10200 nM
2.14 nM	CCCCCCCCCOC(=O)Oc1c2n(cc(C(=O)NCc3ccc(F)cc3F)c1=O)[C@@H]1CN(C2=O)[C@@H](C)CC[C@]12CC(OC)=NO2 [Example 138, (3′S,5S,7′R)-10′-((2,4-difluorobenzyl)carbamoyl)-3-methoxy-3′-methyl-1′,11′-dioxo-1′,4′,5′,11′-tetrahydro-3′H,4H,7′H-spiro[isoxazole-5,6′-[2,7]methanopyrido[1,2-a][1,4]diazonin]-12′-yl nonyl carbonate]	14100 nM
0.995 nM	CCCCCCCCCCOC(=O)Oc1c2n(cc(C(=O)NCc3ccc(F)cc3F)c1=O)[C@@H]1CN(C2=O)[C@@H](C)CC[C@]12CC(C)=NO2 [Example 139, decyl ((3′S,5S,7′R)-10′-((2,4-difluorobenzyl)carbamoyl)-3,3′-dimethyl-1′,11′-dioxo-1′,4′,5′,11′-tetrahydro-3′H,4H,7′H-spiro[isoxazole-5,6′-[2,7]methanopyrido[1,2-a][1,4]diazonin]-12′-yl) carbonate]	13200 nM
3.36 nM	CCCCCCCCCCOC(=O)Oc1c2n(cc(C(=O)NCc3ccc(F)cc3F)c1=O)[C@@H]1CN(C2=O)[C@@H](C)CC[C@]12CC(OC)=NO2 [Example 140, decyl ((3′S,5S,7′R)-10′-((2,4-difluorobenzyl)carbamoyl)-3-methoxy-3′-methyl-1′,11′-dioxo-1′,4′,5′,11′-tetrahydro-3′H,4H,7′H-spiro[isoxazole-5,6′-[2,7]methanopyrido[1,2-a][1,4]diazonin]-12′-yl) carbonate]	15900 nM
2.64 nM	CCCCCCCCCCCCOC(=O)Oc1c2n(cc(C(=O)NCc3ccc(F)cc3F)c1=O)[C@@H]1CN(C2=O)[C@@H](C)CC[C@]12CC(C)=NO2 [Example 141, (3′S,5S,7′R)-10′-((2,4-difluorobenzyl)carbamoyl)-3,3′-dimethyl-1′,11′-dioxo-1′,4′,5′,11′-tetrahydro-3′H,4H,7′H-spiro[isoxazole-5,6′-[2,7]methanopyrido[1,2-a][1,4]diazonin]-12′-yl dodecyl carbonate]	16500 nM
3.64 nM	CCCCCCCCCCCCOC(=O)Oc1c2n(cc(C(=O)NCc3ccc(F)cc3F)c1=O)[C@@H]1CN(C2=O)[C@@H](C)CC[C@]12CC(OC)=NO2 [Example 142, (3′S,5S,7′R)-10′-((2,4-difluorobenzyl)carbamoyl)-3-methoxy-3′-methyl-1′,11′-dioxo-1′,4′,5′,11′-tetrahydro-3′H,4H,7′H-spiro[isoxazole-5,6′-[2,7]methanopyrido[1,2-a][1,4]diazonin]-12′-yl dodecyl carbonate]	36400 nM
6.9 nM	CCCCCCCCCCCCCCCCOC(=O)Oc1c2n(cc(C(=O)NCc3ccc(F)cc3F)c1=O)[C@@H]1CN(C2=O)[C@@H](C)CC[C@]12CC(C)=NO2 [Example 144, (3′S,5S,7′R)-10′-((2,4-difluorobenzyl)carbamoyl)-3,3′-dimethyl-1′,11′-dioxo-1′,4′,5′,11′-tetrahydro-3′H,4H,7′H-spiro[isoxazole-5,6′-[2,7]methanopyrido[1,2-a][1,4]diazonin]-12′-yl hexadecyl carbonate]	≥ 50000 nM
5.93 nM	CCCCCCCCCCCCCCCCOC(=O)Oc1c2n(cc(C(=O)NCc3ccc(F)cc3F)c1=O)[C@@H]1CN(C2=O)[C@@H](C)CC[C@]12CC(OC)=NO2 [Example 145, (3′S,5S,7′R)-10′-((2,4-difluorobenzyl)carbamoyl)-3-methoxy-3′-methyl-1′,11′-dioxo-1′,4′,5′,11′-tetrahydro-3′H,4H,7′H-spiro[isoxazole-5,6′-[2,7]methanopyrido[1,2-a][1,4]diazonin]-12′-yl hexadecyl carbonate]	≥ 50000 nM
7.56 nM	CCCCCCCCCCCCCCCCCCOC(=O)Oc1c2n(cc(C(=O)NCc3ccc(F)cc3F)c1=O)[C@@H]1CN(C2=O)[C@@H](C)CC[C@]12CC(C)=NO2 [Example 146, (3′S,5S,7′R)-10′-((2,4-difluorobenzyl)carbamoyl)-3,3′-dimethyl-1′,11′-dioxo-1′,4′,5′,11′-tetrahydro-3′H,4H,7′H-spiro[isoxazole-5,6′-[2,7]methanopyrido[1,2-a][1,4]diazonin]-12′-yl octadecyl carbonate]	≥ 50000 nM
